Measured values taken from patent US10513521B2, “Compositions and methods for inhibiting BMP” (The Brigham and Women's Hospital, Inc., priority 2014, dated 2019).
Where a chain is given by its changes, count along the chain named. pIC50: −log10 of the molar value. Where two headings read alike, the source gives them in different places.

Assays:
ALK2 [1] = target: T1, ALK2 (Mus musculus, UniProt P37172); assay: HTRF pSMAD1 cell-based ALK2 assay (C2C12 cells, BMP6 as agonist); conditions: BMP6
T1 construct: The C2C12 cell line was selected for the measurement of ALK2 activity using BMP6 as the agonist; host or cells: C2C12
T1 sequence (P37172 21-509): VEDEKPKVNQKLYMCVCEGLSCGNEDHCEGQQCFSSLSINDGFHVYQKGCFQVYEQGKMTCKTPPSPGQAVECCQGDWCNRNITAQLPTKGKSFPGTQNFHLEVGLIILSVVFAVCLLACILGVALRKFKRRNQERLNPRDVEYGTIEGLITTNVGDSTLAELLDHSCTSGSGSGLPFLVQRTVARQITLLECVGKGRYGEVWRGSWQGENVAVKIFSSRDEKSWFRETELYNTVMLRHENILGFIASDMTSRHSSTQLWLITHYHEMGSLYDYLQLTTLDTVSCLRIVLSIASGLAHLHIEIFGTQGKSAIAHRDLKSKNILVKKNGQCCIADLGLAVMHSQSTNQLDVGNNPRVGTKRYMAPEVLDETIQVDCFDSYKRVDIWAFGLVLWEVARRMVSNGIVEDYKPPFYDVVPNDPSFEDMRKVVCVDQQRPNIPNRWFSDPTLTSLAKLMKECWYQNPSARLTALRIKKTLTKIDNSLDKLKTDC
Experimental: 2. HTRF Cell-Based ALK1 and ALK2 Assays in 384-Well Plate Format We have developed a cell based ALK1 kinase assay and a cell-based ALK2 assay. The BAOEC cell line was employed for the measurement of ALK1 activity using BMP9 as the agonist. The C2C12 cell line was selected for the measurement of ALK2 activity using BMP6 as the agonist. The kinase specificity was defined by the specific cell line and agonist. The kinase activity was determined by the status of SMD 1/5/8 phosphorylation stimulated by the agonist.
HyClone Fetal Bovine Serum was obtained from GE healthcare life sciences (Logan, Utah). BMP6 and BMP9 were purchased from R&D System. […] The compound plates and the white solid MB assay plates were purchased from Greiner Bio-one (Monroe, N.C.).
HTRF optimization experiments were performed in 384 well plate format. […] Pre-starved cells were then plated in 384 well plate in the starvation medium (containing in 0.1% FBS). After 4 hours, compounds were added to the assay plate and incubated for 30 minutes. The assay plate was then added with BMP6 for C2C12 cells or BMP9 for BAOEC cells and incubated for 30 minutes.
HTRF assay was performed to measure the status of SMAD 1 phosphorylation after stimulated with the agonist (Table 3). This HTRF phospho SMAD1 cell assay was developed and optimized for the homogenous detection of phospho SMAD 1 levels in cells. […] The plate was incubated at room temperature for overnight.

ALK1 = ALK1 (Homo sapiens, UniProt P37023); assay: TR-FRET enzymatic ALK kinase assay, ALK1
Experimental: (§1) Briefly, the ALKs enzymatic assay was initiated by dispense 2.5 μl enzyme in 1× kinase reaction buffer. The assay plate was then added with compounds followed by incubation at room temperature for 10 minutes. Then 2.5 μl/well substrate was added.

ALK4 = target: T2, ALK4 (Homo sapiens, UniProt P36896); assay: TR-FRET enzymatic ALK kinase assay, ALK4
T2 sequence (P36896 24-505): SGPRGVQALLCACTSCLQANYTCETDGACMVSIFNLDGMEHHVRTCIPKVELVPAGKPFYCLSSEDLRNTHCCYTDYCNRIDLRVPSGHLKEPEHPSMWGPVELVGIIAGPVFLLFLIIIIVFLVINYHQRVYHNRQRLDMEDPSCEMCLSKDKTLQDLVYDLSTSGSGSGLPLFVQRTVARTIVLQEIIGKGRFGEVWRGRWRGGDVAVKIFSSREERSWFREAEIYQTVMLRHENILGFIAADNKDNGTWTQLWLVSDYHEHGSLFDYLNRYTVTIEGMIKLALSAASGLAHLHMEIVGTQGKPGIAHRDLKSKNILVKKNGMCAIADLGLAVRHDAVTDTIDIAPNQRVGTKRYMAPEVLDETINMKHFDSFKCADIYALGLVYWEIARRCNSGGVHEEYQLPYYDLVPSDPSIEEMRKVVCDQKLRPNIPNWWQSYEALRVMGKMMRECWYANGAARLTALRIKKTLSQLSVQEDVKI
Experimental: as §1

ALK3 = ALK3 (Homo sapiens, UniProt P36894); assay: TR-FRET enzymatic ALK kinase assay, ALK3
Experimental: as §1

ALK2 [2] = target: T3, ALK2 (Homo sapiens, UniProt Q04771); assay: TR-FRET enzymatic ALK kinase assay, ALK2
T3 sequence (Q04771 21-509): T1 sequence (P37172 21-509) with V1M, Q10P, I121L, E162D, S310P
Experimental: as §1

ALK6 = ALK6 (Homo sapiens, UniProt O00238); assay: TR-FRET enzymatic ALK kinase assay, ALK6
Experimental: as §1

ALK5 = target: T4, ALK5 (Homo sapiens, UniProt P36897); assay: TR-FRET enzymatic ALK kinase assay, ALK5
T4 sequence (P36897 34-503): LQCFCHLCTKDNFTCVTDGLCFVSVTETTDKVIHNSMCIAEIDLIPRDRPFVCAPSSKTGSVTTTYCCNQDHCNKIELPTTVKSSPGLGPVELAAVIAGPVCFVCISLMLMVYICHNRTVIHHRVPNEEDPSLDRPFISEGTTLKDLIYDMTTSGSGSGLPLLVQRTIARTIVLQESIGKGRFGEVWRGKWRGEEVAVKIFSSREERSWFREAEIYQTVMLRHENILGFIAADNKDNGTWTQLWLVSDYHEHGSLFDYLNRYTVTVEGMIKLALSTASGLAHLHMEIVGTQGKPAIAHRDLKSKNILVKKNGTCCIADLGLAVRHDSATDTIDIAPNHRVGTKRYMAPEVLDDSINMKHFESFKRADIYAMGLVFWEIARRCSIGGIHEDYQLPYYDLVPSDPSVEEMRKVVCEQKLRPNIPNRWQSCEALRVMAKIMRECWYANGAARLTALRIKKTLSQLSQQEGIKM
Experimental: Six ALK kinase enzyme assays were developed for determination of compound activities on ALK1, ALK2, ALK3, ALK4, ALK5 and ALK6.
as §1

[3] = cell-based assay, read-out: Cell IC50 BMP6
[4] = Cell IC50 BMP6, cell-based assay

Sequence of ALK6 (O00238 14-502): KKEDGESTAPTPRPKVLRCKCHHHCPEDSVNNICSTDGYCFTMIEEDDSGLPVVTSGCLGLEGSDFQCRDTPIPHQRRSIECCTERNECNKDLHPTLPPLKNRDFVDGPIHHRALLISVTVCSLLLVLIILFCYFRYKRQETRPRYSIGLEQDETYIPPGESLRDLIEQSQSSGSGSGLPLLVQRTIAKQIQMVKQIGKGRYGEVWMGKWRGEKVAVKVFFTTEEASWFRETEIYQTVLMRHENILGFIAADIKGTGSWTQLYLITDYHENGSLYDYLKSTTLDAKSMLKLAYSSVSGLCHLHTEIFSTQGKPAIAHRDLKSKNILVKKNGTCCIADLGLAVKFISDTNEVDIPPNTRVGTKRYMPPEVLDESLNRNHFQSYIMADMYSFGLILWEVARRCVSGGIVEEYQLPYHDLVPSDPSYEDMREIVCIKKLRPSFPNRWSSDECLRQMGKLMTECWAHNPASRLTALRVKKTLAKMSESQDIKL
Sequence of ALK3 (P36894 24-532): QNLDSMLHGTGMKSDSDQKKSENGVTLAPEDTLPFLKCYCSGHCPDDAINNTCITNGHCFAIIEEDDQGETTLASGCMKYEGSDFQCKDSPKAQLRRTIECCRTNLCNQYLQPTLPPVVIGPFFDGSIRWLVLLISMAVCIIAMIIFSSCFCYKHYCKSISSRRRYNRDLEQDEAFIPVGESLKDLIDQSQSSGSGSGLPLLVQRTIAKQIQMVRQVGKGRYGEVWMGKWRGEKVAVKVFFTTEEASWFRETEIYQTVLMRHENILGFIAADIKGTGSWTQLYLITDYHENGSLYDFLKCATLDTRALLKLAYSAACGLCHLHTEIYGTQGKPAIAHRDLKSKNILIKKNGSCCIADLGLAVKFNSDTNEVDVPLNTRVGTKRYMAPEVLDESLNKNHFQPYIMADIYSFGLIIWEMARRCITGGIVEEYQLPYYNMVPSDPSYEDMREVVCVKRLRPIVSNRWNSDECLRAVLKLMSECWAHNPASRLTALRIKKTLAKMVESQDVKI
Sequence of ALK1 (P37023 22-503): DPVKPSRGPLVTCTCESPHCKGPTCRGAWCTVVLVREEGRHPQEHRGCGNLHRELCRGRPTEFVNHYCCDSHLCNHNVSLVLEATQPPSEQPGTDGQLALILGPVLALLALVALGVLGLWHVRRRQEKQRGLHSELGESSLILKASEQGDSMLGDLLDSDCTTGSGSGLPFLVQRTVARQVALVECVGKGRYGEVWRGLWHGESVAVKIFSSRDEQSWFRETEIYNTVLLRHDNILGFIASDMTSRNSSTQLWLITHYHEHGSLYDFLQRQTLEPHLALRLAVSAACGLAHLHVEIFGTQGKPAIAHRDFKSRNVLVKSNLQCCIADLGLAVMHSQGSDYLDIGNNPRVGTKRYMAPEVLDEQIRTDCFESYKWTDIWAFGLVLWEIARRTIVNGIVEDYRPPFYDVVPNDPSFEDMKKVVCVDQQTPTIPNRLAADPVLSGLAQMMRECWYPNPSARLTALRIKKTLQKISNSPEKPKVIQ

Row | Compound | pIC50 (ALK2 [1]; [3]) | pIC50 (ALK1) | pIC50 (ALK4) | pIC50 (ALK3) | pIC50 (ALK2 [2]) | pIC50 (ALK6) | pIC50 (ALK5) | pIC50 (ALK2 [1]; [4])
1 | C[C@@H]1CNC[C@H](C)N1c1ccc(-c2cnc3c(-c4ccc(Cl)c5ccccc45)cnn3c2)cc1 [Compound 44, 3-(4-chloronaphthalen-1-yl)-6-(4-((2R,6S)-2,6-dimethylpiperazin-1-yl)phenyl)pyrazolo[1,5-a]pyrimidine] | 5.26 | 6.41 | < 5.00 | 5.70 | 6.89 | < 5.00 | < 5.00 | –
2 | C[C@@H]1CNC[C@H](C)N1c1ccc(-c2cnc3c(-c4ccc(S(=O)(=O)C(F)(F)F)cc4)cnn3c2)cc1 [Compound 45, 6-(4-((2R,6S)-2,6-dimethylpiperazin-1-yl)phenyl)-3-(4-((trifluoromethyl)sulfonyl)phenyl)pyrazolo[1,5-a]pyrimidine] | 5.04 | < 5.00 | < 5.00 | < 5.00 | < 5.00 | < 5.00 | < 5.00 | –
3 | CN1CCN(c2ccc(-c3cnc4c(-c5ccc(S(N)(=O)=O)c6ccccc56)cnn4c3)cn2)CC1 [Compound 48, 4-(6-(6-(4-methylpiperazin-1-yl)pyridin-3-yl)pyrazolo[1,5-a]pyrimidin-3-yl)naphthalene-1-sulfonamide] | 4.92 | 5.41 | < 5.00 | < 5.00 | 6.25 | < 5.00 | < 5.00 | –
4 | NS(=O)(=O)c1ccc(-c2cnn3cc(-c4ccc(N5CCNCC5)nc4)cnc23)c2ccccc12 [Compound 49, 4-(6-(6-(piperazin-1-yl)pyridin-3-yl)pyrazolo[1,5-a]pyrimidin-3-yl)naphthalene-1-sulfonamide] | – | 5.77 | < 5.00 | – | – | < 5.00 | < 5.00 | 6.50
5 | CC(C)(CN1CCCCC1)Oc1ccc(-c2cnc3c(-c4ccc(S(N)(=O)=O)c5ccccc45)cnn3c2)cc1 [Compound 52, 4-(6-(4-((2-methyl-1-(piperidin-1-yl)propan-2-yl)oxy)phenyl)pyrazolo[1,5-a]pyrimidin-3-yl)naphthalene-1-sulfonamide] | – | 6.77 | < 5.00 | – | – | < 5.00 | < 5.00 | 8.10
6 | C[C@@H]1CNC[C@H](C)N1c1ccc(-c2cnc3c(-c4ccc([S+](N)(=O)[O-])c(C(F)(F)F)c4)cnn3c2)cc1 [Compound 53, 4-(6-(4-((2R,6S)-2,6-dimethylpiperazin-1-yl)phenyl)pyrazolo[1,5-a]pyrimidin-3-yl)-2-(trifluoromethyl)benzenesulfonamide] | 6.50 | 5.54 | < 5.00 | < 5.00 | 6.42 | < 5.00 | < 5.00 | –
7 | Cc1ccc(-c2cnn3cc(-c4ccc(N5[C@H](C)CNC[C@@H]5C)cc4)cnc23)cc1S(N)(=O)=O [Compound 55, 5-(6-(4-((2R,6S)-2,6-dimethylpiperazin-1-yl)phenyl)pyrazolo[1,5-a]pyrimidin-3-yl)-2-methylbenzenesulfonamide] | 5.32 | 6.10 | < 5.00 | < 5.00 | 6.72 | < 5.00 | < 5.00 | –
8 | NS(=O)(=O)c1ccc(-c2cnn3cc(-c4ccc(C5(O)CCNCC5)nc4)cnc23)c2ccccc12 [Compound 56, 4-(6-(6-(4-hydroxypiperidin-4-yl)pyridin-3-yl)pyrazolo[1,5-a]pyrimidin-3-yl)naphthalene-1-sulfonamide] | 4.22 | 6.05 | < 5.00 | < 5.00 | 6.46 | < 5.00 | < 5.00 | –
9 | C[C@@H]1CNC[C@H](C)N1c1ccc(-c2cnc3c(-c4ccc(S(N)(=O)=O)c(N)c4)cnn3c2)cc1 [Compound 57, 2-amino-4-(6-(4-((2R,6S)-2,6-dimethylpiperazin-1-yl)phenyl)pyrazolo[1,5-a]pyrimidin-3-yl)benzenesulfonamide] | 6.12 | 6.12 | < 5.00 | – | – | < 5.00 | < 5.00 | –
10 | C[C@@H]1CNC[C@H](C)N1c1ccc(-c2cnc3c(-c4cc(N)cc5ccccc45)cnn3c2)cc1 [Compound 58, 4-(6-(4-((2R,6S)-2,6-dimethylpiperazin-1-yl)phenyl)pyrazolo[1,5-a]pyrimidin-3-yl)naphthalen-2-amine] | 7.05 | 7.14 | 5.21 | 6.43 | 7.44 | 6.02 | < 5.00 | –
11 | C[C@@H]1CNC[C@H](C)N1c1ccc(-c2cnc3c(-c4ccc(N)c5ccccc45)cnn3c2)cc1 [Compound 59, 4-(6-(4-((2R,6S)-2,6-dimethylpiperazin-1-yl)phenyl)pyrazolo[1,5-a]pyrimidin-3-yl)naphthalen-1-amine] | 6.55 | 6.85 | 5.39 | 6.05 | 7.37 | 5.60 | < 5.00 | –
12 | C[C@@H]1CNC[C@H](C)N1c1ccc(-c2cnc3c(-c4cccc(S(N)(=O)=O)c4)cnn3c2)cc1 [Compound 60, 3-(6-(4-((2R,6S)-2,6-dimethylpiperazin-1-yl)phenyl)pyrazolo[1,5-a]pyrimidin-3-yl)benzenesulfonamide] | 6.22 | 6.68 | < 5.00 | – | – | < 5.00 | < 5.00 | –
13 | CS(=O)(=O)c1cccc(-c2cnn3cc(-c4ccc(OCCn5ccnc5)cc4)cnc23)c1 [Compound 102, 6-(4-(2-(1H-imidazol-1-yl)ethoxy)phenyl)-3-(3-(methylsulfonyl)phenyl)pyrazolo[1,5-a]pyrimidine] | 6.65 | – | – | – | – | – | – | –
